Reference: patent publication US20140088006A1, “Stem Cell Mobilization and Tissue Repair and Regeneration” (Wellstat Therapeutics Corporation, priority 2011, published 2014)
Where “and” joins values, the source holds several entries; their conditions need not be identical. Equal entries are not always repeated. Entries after “also recorded” stand apart in the source; their conditions may differ. No end group written: not given here.

Assays:
spleen cells = test: Flow cytometry analysis of stem cell phenotypes in spleens on day 7; assay type: in vivo, mice; settings: 250 μg/kg
[1] = system: full-thickness cutaneous wounds; test: Excisional wound healing model in db/db mice; assay type: in vivo; set-up: Wound area measurements, Day 14: unit not given here; settings: for Wound healing rate: individual mice; for Wound healing rate / Wound area measurements, Day 14 / Wound area, Percent of original size: 5 mg/kg; for Wound area measurements, Day 14 / Wound area, Percent of original size: individual wounds
Method: The average time to wound closure between db/db mice and non-diabetic C57BL6 mice was compared in a pilot experiment. Paired 6-mm full-thickness cutaneous wounds were made on the dorsa of mice after depilation with a sterile Miltex biopsy punch (VWR #21909-144). To prevent wound contraction during the healing process, 0.5 g/mL polyisobutyl methacrylate (Sigma #445754) in toluene (Sigma #244511) was applied over wounds 24 hours after wounding. After methacrylate hardened, a transparent dressing (Tagaderm, Lab Safety Supply #53379) was placed over wounds. Two groups of mice (5 mice per group) received intravenous injections of either Vehicle or Compound X (5 mg/kg) starting on day one post wounding and continuing daily for four consecutive days at Zeitgeber time 4 (ZT4), 4 hr after onset of light to time mobilization of stem cells with circadian oscillations (Frenette et. al. 2008).
Digital photographs of the wounds were taken on days 0, 7, 10 and 14. Wound areas were measured by manually tracing the border of unhealed area and quantified as a percent area of the original wound size. The size of the traced area was calculated automatically using the Image J (NIH) analysis program. The following calculation was used to determine the wound healing rate: (Area of original wound−Area of remaining wound)÷Area of original wound×100. […]
In the next experiment, 2 groups of db/db mice (6 mice per group) received paired 6-mm full-thickness cutaneous wounds. Mice then received intravenous injections of either Vehicle or Compound X (5 mg/kg) starting on day one post wounding and continuing daily for four consecutive days at ZT4. Wounds were monitored until complete closure in control group on day 21. To limit wound contraction during the healing process, a donut shaped silicone splint was centered on the wound and glued (cyanoacrylate adhesive) to the skin.
Ten mice were treated per group with 3 mice from each group being sacrificed for histology at day 10 post-wounding. Wound closure in the Compound X treated group was mostly achieved by the 14th day, while control wounds were closed between days 18-21 post-wounding. […] This was similar to data generated in previous experiments.

[2] = system: human umbilical cord blood CD34+ cells; test: Transwell migration of CD34+ cells toward SDF-1α; assay type: cell-based
Method: CD34^+ cell migration toward 100 ng/mL SDF-1α in a Corning Transwell device (24 well format, 5 μm pore size, polycarbonate membrane) was studied with and without Compound X and in the presence or absence of either anti-CXCR4 antibody or the CXCR4 antagonist AMD3100.
The CD34^+ population of cells from human umbilical cord blood was obtained from Lonza, defrosted and expanded ex vivo with cytokine cocktail for 6 days according to standard procedures. Briefly, 10 wells of two 12 well dishes were seeded at a density of 8×10^4 cells per well in 2 mL of CellGenix serum free growth medium (SCGM). Cells were allowed to expand in a 37° C. incubator (5% CO2, 86% RH) for 6 days. During the expansion, the 10 wells of one of the two plates received treatments of Compound X to a final concentration of 5 ng/mL (10 μL from freshly prepared 1 μg/mL stock in SCGM) at 24 hours and 72 hours after initiation of the culture.
3 hours prior to the start of the migration assay, both control and Compound X expanded cells were pulsed with either 0, 5 ng/mL or 5 μg/mL Compound X. Migration assay was performed according to the method described (Tavor et al. 2005). Cells were centrifuged for 5 minutes at 1100 RPM and resuspended at a density of 2×10^6 cells/mL in CellGenix SCGM serum free medium containing 1% Fraction V BSA either in the presence or absence of 5 ng/mL or 5 μg/mL Compound X for 3 hours. The feeder tray (bottom) was prepared with 600 μL of serum free SCGM supplemented with 1% BSA in the presence or absence of SDF-1α. All treatments were conducted in triplicate. The wells of the migration chamber (top) received 100 μL of cells from the 2×10^6 cells/mL suspensions, preincubated with 5 ng/mL or 5 μg/mL Compound X or Control. All treatments were conducted in triplicates. The plates were placed in a 37° C. incubator (5% CO2, 86% RH) and cells were allowed to migrate for 4 hours. […]
The cells were thawed at room temperature. […] 150 μL of the resulting cell lysates were transferred to a new 96 well plate and the fluorescence was read on a […] SpectraMax M2 fluorimeter (ex 485, em 538). […]

[3] = i.v. 5 mg/kg daily for 4 days, Day 7
[4] = i.v. 5 mg/kg daily for 4 days, Day 10
[5] = second experiment, i.v. 5 mg/kg daily for 4 days, 14 days post-wounding

FPHFDLSHGSAQV [Compound X, tridecapeptide that acts on stem cells]
accumulation of cells with stem cell phenotypes in the spleens (spleen cells): No accumulation
CD34+ Flk-1+, Mean (spleen cells; spleen): 0.03
CD34+ Flk-1−, Mean (spleen cells; spleen): 0.05
CD34− Flk-1+, Mean (spleen cells; spleen): 0.38
CD150+ CD48−, Mean (spleen cells; spleen): 0.17
CD244+ CD48+, Mean (spleen cells; spleen): 0.78
Lin− Kit+ Sca-1+, Mean (spleen cells; spleen): 0.07
Lin− Kit+ Sca-1−, Mean (spleen cells; spleen): 0.50
Lin− Kit^low Sca-1+, Mean (spleen cells; spleen): 0.17
Wound healing rate, Average [1, 3]: 14.22%
Wound healing rate [1, 3]: 5.14% and 6.40% and 7.85% and 8.83% and 42.89%
Wound healing rate, Average [1, 4]: 38.68%
Wound healing rate [1, 4]: 17.47% and 13.96% and 65.36% and 17.51% and 79.10%
wound closure ([1]; i.v. 5 mg/kg daily for 4 days, ten days after wounding): 39%
Wound area measurements, Day 14 ([1]; second experiment (6 mice per group, silicone splint), i.v. 5 mg/kg daily for 4 days): 5865 and 19152 and 50090 and 21199 and 49486 and 3603 and 24952 and 59032 and 74676 and 52782 and 11094 and 58870
Wound area, Percent of original size, Average [1, 5]: 8.05%
Wound area, Percent of original size [1, 5]: 1.11% and 5.19% and 10.08% and 7.02% and 10.48% and 0.82% and 4.45% and 12.48% and 14.28% and 13.38% and 2.48% and 14.93%
Wound area measurements, Day 14 ([1]; third experiment (ten mice per group), i.v. 5 mg/kg): 4104 and 24930 and 972 and 100098 and 7440 and 2808 and 324 and 78 and 180 and 21924 and 53715 and 22554 and 20406 and 168663
wounds closed by day 14 (95%-100% closure) ([1]; third experiment, i.v. 5 mg/kg): 11 of 14
Wound area, Percent of original size ([1]; third experiment, i.v. 5 mg/kg, 14 days post-wounding): 0.83% and 5.59% and 0.19% and 18.81% and 1.56% and 0.61% and 0.06% and 0.02% and 0.03% and 4.11% and 10.3% and 5.11% and 5.24% and 29.82%
time to wound closure ([1]; third experiment, i.v. 5 mg/kg, control closed between days 18-21): ≤ 14 days
interference with the effect of AMD3100 or anti CXCR4 antibody on migration ([2]; 5 ng/mL Compound X): did not interfere
CD34+ cell Transwell migration toward SDF-1α ([2]; cells expanded with 5 ng/mL and/or pulsed 3 hours with Compound X, 100 ng/mL SDF-1α, 4 hours): no significant difference; also recorded: had no effect
